Measured values taken from US10463644B2, “Uses of sesquiterpene lactone compounds and their derivatives in drugs preparation” (ACCENDATECH, priority 2013, dated 2019).
Where two headings read alike, the source gives them in different places.

What was measured:
[1] = system: IL-1β secreted by synoviocyte; assay: Content of IL-1β in culture supernatant of synoviocyte of RA model rats given test compound; type: in vivo; conditions: rat RA model, dose 30 mg/kg.2d; normal control 0.16 ± 0.034, NaCl 0.49 ± 0.136
Outline: (§1)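 Rat RA model: compounds given at 30 mg/kg.2d, with normal control and NaCl groups. Synoviocyte culture supernatants assayed for secreted TNF-α and PGE2 by one referenced method, IL-1β by another.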

[2] = system: PGE2 secreted by synoviocyte; assay: Content of PGE2 in culture supernatant of synoviocyte of RA model rats given test compound; type: in vivo; conditions: rat RA model, dose 30 mg/kg.2d; normal control 8.34 ± 1.29, NaCl 32.44 ± 10.32
Outline: as §1

cancer stem cells = assay: Survival rate of cancer stem cells after test compound is added (flow cytometry, Annexin V-FITC/PI, clinical specimen); type: cell-based, patient; conditions: Homo sapiens, 18 h
Outline: (§2)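 Patient specimens (e.g. AML, CD34+/CD38+ stem-cell marker) separated on Ficoll; mononuclear cells at 1×10^6/mL in serum-free IMDM treated 18 h with compound. Cells stained for stem-cell markers, then Annexin V-FITC/PI, and apoptosis measured by flow cytometry within one hour.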

cancer cells = assay: Survival rate of cancer cells after test compound is added (flow cytometry, Annexin V-FITC/PI, clinical specimen); type: cell-based, patient; conditions: Homo sapiens, 18 h, read-out: Survival rate (%) All cells (Stem cells and ordinary cells)
Outline: as §2

normal cells = assay: Survival rate of normal cells after test compound is added (flow cytometry, Annexin V-FITC/PI); type: cell-based; conditions: 18 h
Outline: as §2

[3] = Head and neck squamous cell carcinomas
[4] = read-out: Survival rate (%) All cells (Stem cells and ordinary cells)
[5] = read-out: Survival rate (%) Stem cells

CCOC(=O)[C@@H]1CCCN1C[C@@H]1C(=O)O[C@H]2[C@H]1CCC1(CC1)[C@@H]1CCC3(CC3)[C@H]21 [Compound 29]
Content of IL-1β in culture supernatant of synoviocyte (x ± s) [1]: 0.34 ± 0.039 ng/mL
Content of PGE2 in culture supernatant of synoviocyte (x ± s) [2]: 27.64 ± 2.37 ng/mL
viability at 10 µM (cancer stem cells; AML): 84%
viability at 20 µM (cancer stem cells; AML): 78%
viability at 10 µM (cancer stem cells; Brain glioma): 82%
viability at 20 µM (cancer stem cells; Brain glioma): 76%
viability at 10 µM (cancer stem cells; Brain tumor): 87%
viability at 20 µM (cancer stem cells; Brain tumor): 76%
viability at 10 µM (cancer stem cells; Breast cancer): 79%
viability at 20 µM (cancer stem cells; Breast cancer): 72%
viability at 10 µM (cancer stem cells; CLL): 85%
viability at 20 µM (cancer stem cells; CLL): 79%
viability at 10 µM (cancer stem cells; CML): 81%
viability at 20 µM (cancer stem cells; CML): 75%
viability at 10 µM (cancer stem cells; Children hepatoblastoma): 85%
viability at 20 µM (cancer stem cells; Children hepatoblastoma): 77%
viability at 10 µM (cancer stem cells; Colon adenocarcinoma): 81%
viability at 20 µM (cancer stem cells; Colon adenocarcinoma): 75%
viability at 10 µM (cancer stem cells; Colorectal cancer): 84%
viability at 20 µM (cancer stem cells; Colorectal cancer): 78%
viability at 10 µM (cancer stem cells; Gastric cancer): 79%
viability at 20 µM (cancer stem cells; Gastric cancer): 72%
viability at 10 µM (cancer stem cells; Gastrointestinal tumor): 81%
viability at 20 µM (cancer stem cells; Gastrointestinal tumor): 75%
viability at 10 µM (cancer stem cells; Glioma): 84%
viability at 20 µM (cancer stem cells; Glioma): 78%
viability at 10 µM (cancer stem cells; [3]): 82%
viability at 20 µM (cancer stem cells; [3]): 74%
viability at 10 µM (cancer stem cells; Laryngeal cancer): 85%
viability at 20 µM (cancer stem cells; Laryngeal cancer): 79%
viability at 10 µM (cancer stem cells; Liver cancer): 85%
viability at 20 µM (cancer stem cells; Liver cancer): 77%
viability at 10 µM (cancer stem cells; Lung adenocarcinoma): 88%
viability at 20 µM (cancer stem cells; Lung adenocarcinoma): 81%
viability at 10 µM (cancer stem cells; Lung cancer): 87%
viability at 20 µM (cancer stem cells; Lung cancer): 76%
viability at 10 µM (cancer stem cells; Malignant melanoma): 82%
viability at 20 µM (cancer stem cells; Malignant melanoma): 73%
viability at 10 µM (cancer stem cells; Nasopharynx cancer): 85%
viability at 20 µM (cancer stem cells; Nasopharynx cancer): 79%
viability at 10 µM (cancer stem cells; Ovarian cancer): 88%
viability at 20 µM (cancer stem cells; Ovarian cancer): 81%
viability at 10 µM (cancer stem cells; Pancreatic cancer): 82%
viability at 20 µM (cancer stem cells; Pancreatic cancer): 76%
viability at 10 µM (cancer stem cells; Prostate cancer): 85%
viability at 20 µM (cancer stem cells; Prostate cancer): 79%
viability at 10 µM (cancer stem cells; Retinoblastoma): 85%
viability at 20 µM (cancer stem cells; Retinoblastoma): 77%
viability at 10 µM (cancer stem cells; Skin cancer): 82%
viability at 20 µM (cancer stem cells; Skin cancer): 73%
viability at 10 µM (cancer cells; AML): 91%
viability at 20 µM (cancer cells; AML): 88%
viability at 10 µM (cancer cells; Brain glioma): 89%
viability at 20 µM (cancer cells; Brain glioma): 86%
viability at 10 µM (cancer cells; Brain tumor): 94%
viability at 20 µM (cancer cells; Brain tumor): 87%
viability at 10 µM (cancer cells; Breast cancer): 88%
viability at 20 µM (cancer cells; Breast cancer): 81%
viability at 10 µM (cancer cells; CLL): 88%
viability at 20 µM (cancer cells; CLL): 85%
viability at 10 µM (cancer cells; CML): 87%
viability at 20 µM (cancer cells; CML): 83%
viability at 10 µM (cancer cells; Children hepatoblastoma): 92%
viability at 20 µM (cancer cells; Children hepatoblastoma): 89%
viability at 10 µM (cancer cells; Colon adenocarcinoma): 87%
viability at 20 µM (cancer cells; Colon adenocarcinoma): 83%
viability at 10 µM (cancer cells; Colorectal cancer): 91%
viability at 20 µM (cancer cells; Colorectal cancer): 88%
viability at 10 µM (cancer cells; Gastric cancer): 88%
viability at 20 µM (cancer cells; Gastric cancer): 81%
viability at 10 µM (cancer cells; Gastrointestinal tumor): 87%
viability at 20 µM (cancer cells; Gastrointestinal tumor): 83%
viability at 10 µM (cancer cells; Glioma): 91%
viability at 20 µM (cancer cells; Glioma): 88%
viability at 10 µM (cancer cells; [3]): 88%
viability at 20 µM (cancer cells; [3]): 85%
viability at 10 µM (cancer cells; Laryngeal cancer): 93%
viability at 20 µM (cancer cells; Laryngeal cancer): 86%
viability at 10 µM (cancer cells; Liver cancer): 92%
viability at 20 µM (cancer cells; Liver cancer): 89%
viability at 10 µM (cancer cells; Lung adenocarcinoma): 91%
viability at 20 µM (cancer cells; Lung adenocarcinoma): 89%
viability at 10 µM (cancer cells; Lung cancer): 94%
viability at 20 µM (cancer cells; Lung cancer): 87%
viability at 10 µM (cancer cells; Malignant melanoma): 91%
viability at 20 µM (cancer cells; Malignant melanoma): 87%
viability at 10 µM (cancer cells; Nasopharynx cancer): 88%
viability at 20 µM (cancer cells; Nasopharynx cancer): 85%
viability at 10 µM (cancer cells; Ovarian cancer): 91%
viability at 20 µM (cancer cells; Ovarian cancer): 89%
viability at 10 µM (cancer cells; Pancreatic cancer): 88%
viability at 20 µM (cancer cells; Pancreatic cancer): 89%
viability at 10 µM (cancer cells; Prostate cancer): 93%
viability at 20 µM (cancer cells; Prostate cancer): 86%
viability at 10 µM (cancer cells; Retinoblastoma): 92%
viability at 20 µM (cancer cells; Retinoblastoma): 89%
viability at 10 µM (cancer cells; Skin cancer): 91%
viability at 20 µM (cancer cells; Skin cancer): 87%
viability at 10 µM (normal cells; [4]): 96%
viability at 10 µM (normal cells; [5]): 93%
viability at 20 µM (normal cells; [4]): 95%
viability at 20 µM (normal cells; [5]): 92%
